Columns and labels:
Format in all cases: cell-based
[1] = system: THP1-dual cells; test: Luciferase assay based on THP1-dual cells; conditions: final concentration of compound 10 μL (so in the source), 24 h at 37° C.
Experimental: (§1) THP1-dual™ (Invivogen: thpd-nfis) cells or RAW-Lucia™ (Invivogen: rawl-isg) cells were diluted using a culture medium, and 180 μL of cell suspension was sucked and inoculated in a 96-well plate, such that each well contain 1×10^5 cells. 20 μL of a compound to be tested was added into the 96-well plate (the final concentration of said compound was […], and the final volume of each well was […]) and cultured at 37° C. for 24 h. 10 μL of supernatant was sucked into a new 96-well white plate, and 50 μL of a QUANT-Luc reagent was added. After full and even mixing, a microplate reader was used immediately for determination. There were three repeated wells set in the assay. The test result was represented as agitation fold and calculated by (test well−blank well)/(negative well−blank well). The test result was in the following tablet, with 2′,3′-cGAMP as a positive control, where *** represented an agitation fold of 20 or more, ** represented an agitation fold of 10 to 20, and * represented an agitation fold of 1 to 10.

[2] = system: RAW-Lucia cells; test: Luciferase assay based on RAW-Lucia cells; conditions: 24 h at 37° C.
Experimental: as §1

[3] = system: THP1 cells; test: Interferon β induction assay based on THP1 cells (ELISA); conditions: Homo sapiens, THP-1, compound 20 μM, 3.5 h, read-out: Secretion of IFNβ in THP1 cells, effect relative to 2′,3′-cGAMP at 20 μM (%)
Experimental: Secreted cytokine IFNβ was determined by ELISA. THP1 cells were inoculated in a 96-well plate (there was no serum contained in an RPMI 1640 medium), such that the number of cells in each well ranged from 5×10^5 to 7×10^5. A DMSO stock solution of 10 mM was prepared from a compound to be tested, diluted with a culture medium to a target concentration to be added into the 96-well plate containing cells (the final concentration of said compound was 20 μM, and the final volume of each well was 200 μL), and cultured at 37° C. in 5% CO2 for 3.5 h. The cells were collected at 4° C. and centrifuged at 1,000 rpm for 20 mins, and supernate was collected for ELISA determination. There were three repeated wells set in the assay. The result was shown in the following tablet, with 2′,3′-cGAMP as a positive control, where the test result was represented as a percentage of activity relative to 2′,3′-cGAMP at a concentration of 20 μM.

Compound	Agitation activity in luciferase assay, THP1-dual (agitation fold) [1]	Agitation activity in luciferase assay, RAW-Lucia (agitation fold) [2]	Emax at 20 µM [3] [%]
COc1cc2cc(C(=O)CC(C)C(=O)NO)[se]c2cc1OC (stereo not drawn) [I-12, 4-(5,6-dimethoxybenzo[b]selenophene-2-yl)-N-hydroxyl-2-methyl-4-oxo-butyramide]	* (* represented an agitation fold of 1 to 10)	* (* represented an agitation fold of 1 to 10)	11
COc1cc2cc(C(=O)CC(C)C(N)=O)[se]c2cc1OC (stereo not drawn) [I-13, 4-(5,6-dimethoxybenzo[b]selenophene-2-yl)-2-methyl-4-oxo-butyramide]	* (* represented an agitation fold of 1 to 10)	* (* represented an agitation fold of 1 to 10)	6
CC[C@H](CC(=O)c1cc2cc(OC)c(OC)cc2[se]1)C(=O)O [I-15, R-4-(5,6-dimethoxybenzo[b]selenophene-2-yl)-2-ethyl-4-oxo-butanoic acid]	*** (*** represented an agitation fold of 20 or more)	*** (*** represented an agitation fold of 20 or more)	2
CC[C@@H](CC(=O)c1cc2cc(OC)c(OC)cc2[se]1)C(=O)O [I-16, S-4-(5,6-dimethoxybenzo[b]selenophene-2-yl)-2-ethyl-4-oxo-butanoic acid]	*** (*** represented an agitation fold of 20 or more)	*** (*** represented an agitation fold of 20 or more)	281
COc1cc2cc(C(=O)CC(C(=O)O)C(C)C)[se]c2cc1OC (stereo not drawn) [I-17, 4-(5,6-dimethoxybenzo[b]selenophene-2-yl)-2-isopropyl-4-oxo-butanoic acid]	*** (*** represented an agitation fold of 20 or more)	** (** represented an agitation fold of 10 to 20)	293
COc1cc2cc(C(=O)CC(C(=O)O)C3CC3)[se]c2cc1OC (stereo not drawn) [I-18, 2-cyclopropyl-4-(5,6-dimethoxybenzo[b]selenophene-2-yl)-4-oxo-butanoic acid]	*** (*** represented an agitation fold of 20 or more)	** (** represented an agitation fold of 10 to 20)	277
COCC(CC(=O)c1cc2cc(OC)c(OC)cc2[se]1)C(=O)O (stereo not drawn) [I-19, 4-(5,6-dimethoxybenzo[b]selenophene-2-yl)-2-(methoxymethyl)-4-oxo-butanoic acid]	** (** represented an agitation fold of 10 to 20)	** (** represented an agitation fold of 10 to 20)	107
CCCCC(CC(=O)c1cc2cc(OC)c(OC)cc2[se]1)C(=O)O (stereo not drawn) [I-20, 2-(2-(5,6-dimethoxybenzo[b]selenophene-2-yl)-2-oxo-ethyl) hexanoic acid]	** (** represented an agitation fold of 10 to 20)	** (** represented an agitation fold of 10 to 20)	132
COc1cc2cc(C(=O)CCCC(=O)O)[se]c2cc1OC [I-21, 5-(5,6-dimethoxybenzo[b]selenophene-2-yl)-5-oxo-pentanoic acid]	* (* represented an agitation fold of 1 to 10)	* (* represented an agitation fold of 1 to 10)	12
